From paper PMC10321576, “Cyclic peptides target the aromatic cage of a PHD-finger reader domain to modulate epigenetic protein function” (Chemical Science, 2023)
Like-named read-outs stand apart in the source and are kept apart here. Ends that are not written are not given here. Peptide text beside a SMILES is read from it.

What was measured:
[1] = biological target: T1, KDM7B PHD (Homo sapiens, UniProt Q9UPP1); assay: BLI binding; design: key to BLI Screening, KDM7B PHD: (+) = binding; (-) = no binding; (NS) = non-specific; conditions: for BLI Screening, KDM7B PHD: qualitative assessment of binding by BLI
T1 construct: KDM7B 1-66; made in house
T1 sequence (Q9UPP1 1-66 isoform Q9UPP1-2): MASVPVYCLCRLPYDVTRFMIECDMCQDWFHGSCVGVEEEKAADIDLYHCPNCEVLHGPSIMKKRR
Text: (§1) Figure S2. BLI for KDM7 proteins with cyclic peptides.
(§2) BLI traces for b inding to KDM7 protein domains immobilised by C-terminal His -tag on Ni -NTA
(§3) biosensors, against cyclic peptides. Response trace for each peptide concentration is represented by
(§4) a different colour, with the fitted curves overlaid in black.
(§5) concentration plotted, with 2-fold dilutions thereafter. Dual domain = PHD+JmjC. […]
(§6) against KDM7 and other protein domains. t1/2 = half life (0.693 / Koff)
(§7) (1 picture or pasted object on this page, not shown here)

[2] = biological target: T2, KDM7B Dual (PHD+JmjC) (Homo sapiens, UniProt Q9UPP1); assay: BLI binding; design: key to BLI Screening, KDM7B Dual: (+) = binding; (-) = no binding; (NS) = non-specific; conditions: for koff / kon / Kd: 1:1 binding model; for Kd: His-tagged protein on Ni-NTA biosensors; for BLI Screening, KDM7B Dual: qualitative assessment of binding by BLI
T2 construct: Dual domain = PHD+JmjC; made in house
T2 sequence (Q9UPP1 37-483 limits assumed): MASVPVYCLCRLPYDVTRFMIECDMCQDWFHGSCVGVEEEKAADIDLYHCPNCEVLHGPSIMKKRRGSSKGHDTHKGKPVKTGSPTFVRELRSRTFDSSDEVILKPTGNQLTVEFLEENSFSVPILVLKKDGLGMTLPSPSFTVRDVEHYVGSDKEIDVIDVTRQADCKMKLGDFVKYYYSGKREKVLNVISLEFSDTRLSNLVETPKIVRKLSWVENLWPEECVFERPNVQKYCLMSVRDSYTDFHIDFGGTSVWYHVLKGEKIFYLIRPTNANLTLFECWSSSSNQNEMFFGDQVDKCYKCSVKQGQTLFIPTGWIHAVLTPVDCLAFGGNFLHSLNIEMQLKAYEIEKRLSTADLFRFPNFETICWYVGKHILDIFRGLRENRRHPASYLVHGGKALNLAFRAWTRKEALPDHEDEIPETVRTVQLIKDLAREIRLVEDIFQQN
Text: as §1, §2, §3, §4, §5, §6, §7

[3] = biological target: T3, KDM7B JmjC (Homo sapiens, UniProt Q9UPP1); assay: BLI binding; design: key to BLI Screening, KDM7B JmjC: (+) = binding; (-) = no binding; (NS) = non-specific; conditions: for Kd: read-out: BLI pKD, KDM7B JmjC (converted); for BLI Screening, KDM7B JmjC: qualitative assessment of binding by BLI
T3 construct: made in house
T3 sequence (Q9UPP1 231-387 limits assumed): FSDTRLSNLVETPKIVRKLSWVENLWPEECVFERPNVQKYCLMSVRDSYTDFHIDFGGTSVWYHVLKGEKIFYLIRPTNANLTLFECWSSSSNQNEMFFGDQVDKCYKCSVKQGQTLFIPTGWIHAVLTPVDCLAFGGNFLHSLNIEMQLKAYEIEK
Text: as §1, §2, §3, §4, §5, §6, §7

[4] = biological target: T4, KDM7B Dual (Homo sapiens, UniProt Q9UPP1); assay: ITC binding
T4 construct: Dual = PHD+JmjC; made in house
T4 sequence (Q9UPP1 37-483 limits assumed): as the sequence (Q9UPP1 37-483 limits assumed) above
Experimental: Figure S10. ITC results: Tabulated values from 1:1 binding model and conditions
ITC buffer = 50 mM HEPES, 100 mM NaCl, pH 7.4, 0.2 µm filtered), at 25 °C. Dual = PHD+JmjC. HisTrx
= His 6+thioredoxin tag, GST = glutathione S -transferase tag, ZB = Z -basic tag. Syringe contained
peptide solution in buffer. Cell contained protein solution in buffer.
as §7

[5] = biological target: T5, KDM7B dual domain (Homo sapiens, UniProt Q9UPP1); assay: HDX-MS; format: binding; conditions: relative to DMSO
T5 construct: dual domain (PHD-JmjC) of KDM7B; His-tag (C); made in house
T5 sequence (Q9UPP1 37-483 limits assumed): as above
Text: To further evaluate the interactions of OC9 with KDM7B we used hydrogen–deuterium exchange mass spectrometry (HDX-MS), which informs on protein dynamics by following deuterium incorporation into the protein amide backbone (Fig. 2).
The residue level view was generated by averaging mass changes across overlapping peptide fragments. Supporting data available in ESI. ^† K4me3 binding aromatic cage residues (‘YYMW’ Fig. 1a) are indicated by red asterix.

[6] = biological target: T1, KDM7B PHD; assay: AlphaScreen displacement of H3 1-21K4me3-Bt; format: binding; conditions: for reduced potency relative to OC9: affinity (BLI) and displacement (AS) assays, KDM7B PHD-finger
Text: The functional effect of OC9 on the PHD-finger was further assessed using an AlphaScreen (AS) based proximity assay. […]

[7] = His-tagged protein on Ni-NTA biosensors, 1:1 binding model, read-out: BLI KD, KDM7B PHD

For `CC[C@H](C)[C@@H]1NC(=O)[C@H](CC(C)C)NC(=O)[C@H](CCCNC(=N)N)NC(=O)[C@H](CCCNC(=N)N)NC(=O)[C@@H]2CCCN2C(=O)[C@H](Cc2ccc(O)cc2)NC(=O)[C@H](C(C)C)NC(=O)[C@H](CC(C)C)NC(=O)[C@H](CC(C)C)NC(=O)[C@H](C(C)C)NC(=O)[C@@H]2CCCN2C(=O)[C@H](Cc2ccc(O)cc2)NC(=O)CSC[C@@H](C(N)=O)NC1=O` [OC3] (HELM PEPTIDE1{[O=C(C[*:3])[*:2]].Y.P.V.L.L.V.Y.P.R.R.L.I.C.[am]}$PEPTIDE1,PEPTIDE1,1:R3-14:R3$$$V2.0), the Kd [1, 7] was greater than 1000 nM, the “BLI Screening, KDM7B PHD” value [1] was “-” and the koff [2] was 0.0148 ± 0.0001 s⁻¹. For the same compound, the kon [2] was 502000 ± 5000 M⁻¹ s⁻¹, the Kd [2] was 29.5 nM and the “BLI Screening, KDM7B Dual” value [2] was “+”. For the same compound, the Kd ([3]; 1:1 binding model) was greater than 1000 nM, the “BLI Screening, KDM7B JmjC” value [3] was “-” and the Kd ([4]; 50 mM HEPES, 100 mM NaCl, pH 7.4, 25 °C, 1:1 binding model) was 163 nM. For the same compound, the “ITC ΔH, KDM7B Dual” value ([4]; 25 °C) was -16.3 ± 1.5 kJ mol -1, the “ITC N, KDM7B Dual” value ([4]; stoichiometry) was 1.37 ± 0.05 and the “HDX-MS effect on deuterium uptake, KDM7B dual domain” value [5] was “affected deuterium uptake in both domains”.
`CC[C@H](C)[C@@H]1NC(=O)[C@H](Cc2c[nH]c3ccccc23)NC(=O)[C@H](CO)NC(=O)[C@H](CC(C)C)NC(=O)[C@H](Cc2ccc(O)cc2)NC(=O)[C@H](Cc2ccc(O)cc2)NC(=O)[C@H]([C@@H](C)O)NC(=O)CNC(=O)[C@H](Cc2ccc(O)cc2)NC(=O)[C@H](C(C)C)NC(=O)[C@H](Cc2ccc(O)cc2)NC(=O)CSC[C@@H](C(N)=O)NC(=O)[C@@H]2CCCN2C1=O` [OC4] (HELM PEPTIDE1{[O=C(C[*:3])[*:2]].Y.V.Y.G.T.Y.Y.L.S.W.I.P.C.[am]}$PEPTIDE1,PEPTIDE1,1:R3-14:R3$$$V2.0) was tested, and the Kd [1, 7] was greater than 1000 nM, the “BLI Screening, KDM7B PHD” value [1] was “-” and the koff [2] was 0.0124 ± 0.0001 s⁻¹. The kon [2] was 212000 ± 2000 M⁻¹ s⁻¹, the Kd [2] was 58.6 nM and the “BLI Screening, KDM7B Dual” value [2] was “+”. The koff ([3]; 1:1 binding model) was 0.0245 ± 0.0001 s⁻¹, the kon ([3]; 1:1 binding model) was 249000 ± 3000 M⁻¹ s⁻¹ and the Kd ([3]; 1:1 binding model) was 100 nM. For the same compound, the “BLI Screening, KDM7B JmjC” value [3] was “+”.
In the case of `CC(C)C[C@@H]1NC(=O)[C@H](Cc2ccc(O)cc2)NC(=O)[C@H](Cc2ccc(O)cc2)NC(=O)CSC[C@@H](C(N)=O)NC(=O)[C@H]([C@@H](C)O)NC(=O)[C@H](C)NC(=O)[C@H](Cc2ccccc2)NC(=O)[C@H](C(C)C)NC(=O)[C@H](CO)NC(=O)[C@@H]2CCCN2C(=O)[C@H](Cc2ccc(O)cc2)NC(=O)[C@@H]2CCCN2C(=O)[C@H](Cc2c[nH]cn2)NC(=O)[C@H]([C@@H](C)O)NC1=O` [R12A] (HELM PEPTIDE1{[O=C(C[*:3])[*:2]].Y.Y.L.T.H.P.Y.P.S.V.F.A.T.C.[am]}$PEPTIDE1,PEPTIDE1,1:R3-15:R3$$$V2.0; C-terminus assumed), the “faster off-rate by BLI (vs OC9)” value [1] is reported as roughly 100 × and the “reduced potency relative to OC9” value [6] is reported as “much weaker”.
For `CC(C)C[C@@H]1NC(=O)[C@H](Cc2ccc(O)cc2)NC(=O)[C@H](Cc2ccc(O)cc2)NC(=O)CSC[C@@H](C(N)=O)NC(=O)[C@H]([C@@H](C)O)NC(=O)[C@H](CCCNC(=N)N)NC(=O)[C@H](Cc2ccccc2)NC(=O)[C@H](C(C)C)NC(=O)[C@H](C)NC(=O)[C@@H]2CCCN2C(=O)[C@H](Cc2ccc(O)cc2)NC(=O)[C@@H]2CCCN2C(=O)[C@H](Cc2c[nH]cn2)NC(=O)[C@H]([C@@H](C)O)NC1=O` [S9A] (HELM PEPTIDE1{[O=C(C[*:3])[*:2]].Y.Y.L.T.H.P.Y.P.A.V.F.R.T.C.[am]}$PEPTIDE1,PEPTIDE1,1:R3-15:R3$$$V2.0; C-terminus assumed), the “reduced potency relative to OC9” value [6] was “much weaker”.
For `CC(C)C[C@@H]1NC(=O)[C@H](Cc2ccc(O)cc2)NC(=O)[C@H](Cc2ccc(O)cc2)NC(=O)CSC[C@@H](C(N)=O)NC(=O)[C@H]([C@@H](C)O)NC(=O)[C@H](CCCNC(=N)N)NC(=O)[C@H](Cc2ccccc2)NC(=O)[C@H](CCCCN)NC(=O)[C@H](CO)NC(=O)[C@@H]2CCCN2C(=O)[C@H](Cc2ccc(O)cc2)NC(=O)[C@@H]2CCCN2C(=O)[C@H](Cc2c[nH]cn2)NC(=O)[C@H]([C@@H](C)O)NC1=O` [V10K] (HELM PEPTIDE1{[O=C(C[*:3])[*:2]].Y.Y.L.T.H.P.Y.P.S.K.F.R.T.C.[am]}$PEPTIDE1,PEPTIDE1,1:R3-15:R3$$$V2.0; C-terminus assumed), the Kd ([1]; read-out: BLI KD, KDM7B PHD-finger) was greater than 10000 nM and the IC50 ([6]; read-out: IC50^AS, KDM7B PHD-finger) was greater than 10 µM.
With `CC(C)C[C@@H]1NC(=O)[C@H](CO)NC(=O)[C@@H]2CCCN2C(=O)[C@H](Cc2ccc(O)cc2)NC(=O)[C@@H]2CCCN2C(=O)[C@H](Cc2c[nH]cn2)NC(=O)[C@H]([C@@H](C)O)NC(=O)[C@H](CC(C)C)NC(=O)[C@H](Cc2ccc(O)cc2)NC(=O)[C@H](Cc2ccc(O)cc2)NC(=O)CSC[C@@H](C(N)=O)NC(=O)[C@H]([C@@H](C)O)NC(=O)[C@H](CCCNC(=N)N)NC(=O)[C@H](Cc2ccccc2)NC1=O` [V10L] (HELM PEPTIDE1{[O=C(C[*:3])[*:2]].Y.Y.L.T.H.P.Y.P.S.L.F.R.T.C.[am]}$PEPTIDE1,PEPTIDE1,1:R3-15:R3$$$V2.0; C-terminus assumed) the “reduction in KD in BLI compared to OC9” value [1] was greater than 80 fold, the “reduction in t1/2 in BLI compared to OC9” value [1] was greater than 75 fold and the “reduction in IC50^AS compared to OC9” value [6] was 10 fold.
For “Ac-YYLTHPYPSVFRTC-NH2 (N-terminus and C-terminus assumed) [Linear]”, the “reduced potency relative to OC9” value [6] was greater than 100 fold.
In the case of “YIVPSPIWYHWVAC (also: sidechain bridge or staple (positions not given here)) [OC10]”, the “BLI Screening, KDM7B Dual” value [2] is reported as “-”.
With “YLVRIYPNKLIWWC (also: sidechain bridge or staple (positions not given here)) [OC6, enriched cyclic peptide, non-specific in BLI]” the “BLI Screening, KDM7B PHD” value [1] was “NS”, the “BLI Screening, KDM7B Dual” value [2] was “NS” and the “BLI Screening, KDM7B JmjC” value [3] was “NS”.
“YPYILYPSVYTTNC (also: sidechain bridge or staple (positions not given here)) [OC8]” was tested, and the “BLI Screening, KDM7B Dual” value [2] was “-”.
